Earlier results in patent US20240023554A1, “MICROPARTICLE COMPOSITIONS COMPRISING TRIFLUDIMOXAZIN” (BASF SE, priority 2020, published 2024).

Conditions: background statement

C#CCN1C(=O)C(F)(F)Oc2cc(F)c(-n3c(=O)n(C)c(=S)n(C)c3=O)cc21 [Trifludimoxazin, 1,5-dimethyl-6-thioxo-3-[2,2,7-trifluoro-3-oxo-4-(prop-2-yn-1-yl)-3,4-dihydro-2H-1,4-benzoxazin-6-yl]-1,3,5-triazinane-2,4-dione]
solubility in water: only sparingly soluble in water
